Laboratory results published in ChEMBL document CHEMBL4834472 (J Med Chem, 2021).
Activity calls are given as the source filed them. The calls are words filed in the database; no cut-off is given here.

What was measured:
[1] = system: BaF3; assay: Antiproliferative activity against mouse BaF3 cells harboring FLt3 ITD mutant assessed as cell death measured after 72 hrs by resazurin dye based assay; assay type: functional; settings: BaF3, 72 h
[2] = system: MV4-11; assay: cells; settings: Homo sapiens, MV4-11, 72 h
Description: Antiproliferative activity against human MV4-11 cells assessed as cell death measured after 72 hrs by resazurin dye based assay

[3] = molecular target: CDK2/Cyclin A1 (Homo sapiens, UniProt P24941); assay type: protein-complex assay
Description: Inhibition of CDK2/Cyclin A1 (unknown origin) at 1 uM using histone H1 as substrate preincubated for 20 mins followed by 33P-ATP addition and measured after 2 hrs by filter binding method

[4] = system: CCRF-CEM; assay: Antiproliferative activity against human CCRF-CEM cells assessed as cell death measured after 72 hrs by resazurin dye based assay; assay type: functional
[5] = system: K562; assay: cells; settings: Homo sapiens, K562, 72 h
Description: Antiproliferative activity against human K562 cells assessed as cell death measured after 72 hrs by resazurin dye based assay

[6] = molecular target: Receptor-type tyrosine-protein kinase FLT3 (Homo sapiens, UniProt P36888, ITD)
[7] = molecular target: Receptor-type tyrosine-protein kinase FLT3 (Homo sapiens) (UniProt P36888); assay: Inhibition of FLT3 in human MV4-11 cells assessed as STAT5 phosphorylation at Y694 at 20 to 100 nM incubated for 1 hrs by Western blot analysis; assay type: cell-based; settings: dose 20-100 nM
[8] = system: THP-1; assay: Antiproliferative activity against human THP-1 cells assessed as cell death measured after 72 hrs by resazurin dye based assay; assay type: functional; settings: THP-1, 72 h
[9] = system: MOLM-14; assay: Antiproliferative activity against human MOLM-14 cells assessed as cell death measured after 72 hrs by resazurin dye based assay; assay type: functional; settings: MOLM-14, 72 h
[10] = system: MV4-11; assay: Induction of apoptosis in human MV4-11 cells assessed as increase in cleaved PARP1 level at 100 nM incubated for 24 hrs by Western blot analysis; assay type: functional, cell-based
[11] = system: MOLM-14; assay: Antiproliferative activity against human MOLM-14 cells harboring F691L mutant assessed as cell death measured after 72 hrs by resazurin dye based assay; assay type: functional; settings: MOLM-14, 72 h
[12] = molecular target: T1, Receptor-type tyrosine-protein kinase FLT3 (Homo sapiens, UniProt P36888); assay: Inhibition of wild type FLT3 (unknown origin) using AGLT peptide substrate in presence of [32P]gammaATP by image analyser
T1 sequence (P36888 whole entry): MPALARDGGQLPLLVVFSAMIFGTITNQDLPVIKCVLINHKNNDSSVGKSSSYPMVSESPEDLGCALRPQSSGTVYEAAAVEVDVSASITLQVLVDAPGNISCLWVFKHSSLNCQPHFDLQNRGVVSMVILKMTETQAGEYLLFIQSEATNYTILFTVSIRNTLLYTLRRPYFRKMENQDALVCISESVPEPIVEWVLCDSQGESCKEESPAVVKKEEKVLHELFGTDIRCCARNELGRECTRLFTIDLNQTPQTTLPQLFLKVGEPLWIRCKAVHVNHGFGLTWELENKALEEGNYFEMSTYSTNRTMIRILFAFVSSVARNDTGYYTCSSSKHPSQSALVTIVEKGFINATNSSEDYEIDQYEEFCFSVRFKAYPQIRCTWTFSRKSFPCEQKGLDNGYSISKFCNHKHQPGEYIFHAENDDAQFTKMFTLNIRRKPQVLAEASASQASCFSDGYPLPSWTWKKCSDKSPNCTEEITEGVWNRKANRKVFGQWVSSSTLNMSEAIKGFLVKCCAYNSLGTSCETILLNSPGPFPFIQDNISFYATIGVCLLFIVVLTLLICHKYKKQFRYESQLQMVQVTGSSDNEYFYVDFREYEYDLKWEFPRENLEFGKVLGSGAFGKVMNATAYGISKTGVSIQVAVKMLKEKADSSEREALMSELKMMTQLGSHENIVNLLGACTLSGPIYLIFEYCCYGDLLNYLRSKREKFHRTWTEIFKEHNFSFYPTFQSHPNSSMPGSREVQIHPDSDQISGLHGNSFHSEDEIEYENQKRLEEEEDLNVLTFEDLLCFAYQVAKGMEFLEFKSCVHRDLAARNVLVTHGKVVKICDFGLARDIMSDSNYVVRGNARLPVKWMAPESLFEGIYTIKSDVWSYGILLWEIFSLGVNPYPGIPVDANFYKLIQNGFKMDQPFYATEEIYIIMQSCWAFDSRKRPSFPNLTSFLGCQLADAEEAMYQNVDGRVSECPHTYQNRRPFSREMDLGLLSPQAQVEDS

[13] = system: MV4-11; assay: Induction of apoptosis in human MV4-11 cells assessed as caspase 3 activation using fluorescent substrate Ac-DEVD-AMC at 100 nM incubated for 24 hrs by Western blot analysis; assay type: functional, cell-based
[14] = system: MOLM-14; assay: Antiproliferative activity against human MOLM-14 cells harboring D835Y mutant assessed as cell death measured after 72 hrs by resazurin dye based assay; assay type: functional; settings: MOLM-14, 72 h
[15] = system: BaF3; assay: Antiproliferative activity against mouse BaF3 cells assessed as cell death measured after 72 hrs by resazurin dye based assay; assay type: functional; settings: BaF3, 72 h
[16] = system: MV4-11; assay: Induction of apoptosis in human MV4-11 cells assessed as caspase 7 activation using fluorescent substrate Ac-DEVD-AMC at 100 nM incubated for 24 hrs by Western blot analysis; assay type: functional, cell-based
[17] = system: MV4-11; assay: Induction of apoptosis in human MV4-11 cells assessed as effect on Bcl2 level at 100 nM incubated for 24 hrs by Western blot analysis; assay type: functional, cell-based
[18] = system: U-937; assay: Antiproliferative activity against human U-937 cells assessed as cell death measured after 72 hrs by resazurin dye based assay; assay type: functional; settings: U-937, 72 h
[19] = system: MV4-11; assay: Induction of apoptosis in human MV4-11 cells assessed as decrease in MCL1 level at 100 nM incubated for 24 hrs by Western blot analysis; assay type: functional, cell-based
[20] = molecular target: Receptor-type tyrosine-protein kinase FLT3 (Homo sapiens) (UniProt P36888); assay: Inhibition of FLT3 autophosphorylation in human MV4-11 cells at 20 to 100 nM incubated for 1 hrs by Western blot analysis; assay type: cell-based; settings: dose 20-100 nM
[21] = molecular target: CDK2/Cyclin A2 (Homo sapiens, UniProt P24941); assay: Inhibition of CDK2/cyclin A2 (unknown origin) in presence of [32P]gammaATP by image analyser; assay type: protein-complex assay
[22] = molecular target: Cyclin-dependent kinase 4/cyclin D1 (Homo sapiens, UniProt P11802); assay: Inhibition of CDK4/cyclin D1 (unknown origin) in presence of [32P]gammaATP by image analyser; assay type: protein-complex assay
Cyclin-dependent kinase 4/cyclin D1, sequence (P11802 whole entry): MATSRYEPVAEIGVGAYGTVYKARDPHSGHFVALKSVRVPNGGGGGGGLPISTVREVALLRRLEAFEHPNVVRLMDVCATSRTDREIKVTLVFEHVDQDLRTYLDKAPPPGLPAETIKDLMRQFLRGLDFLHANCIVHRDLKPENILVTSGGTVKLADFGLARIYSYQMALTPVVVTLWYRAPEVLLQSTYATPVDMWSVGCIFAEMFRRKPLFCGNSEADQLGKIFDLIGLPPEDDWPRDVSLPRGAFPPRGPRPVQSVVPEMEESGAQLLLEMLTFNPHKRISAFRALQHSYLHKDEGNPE
Cyclin-dependent kinase 4/cyclin D1, sequence (P24385 whole entry, further chain): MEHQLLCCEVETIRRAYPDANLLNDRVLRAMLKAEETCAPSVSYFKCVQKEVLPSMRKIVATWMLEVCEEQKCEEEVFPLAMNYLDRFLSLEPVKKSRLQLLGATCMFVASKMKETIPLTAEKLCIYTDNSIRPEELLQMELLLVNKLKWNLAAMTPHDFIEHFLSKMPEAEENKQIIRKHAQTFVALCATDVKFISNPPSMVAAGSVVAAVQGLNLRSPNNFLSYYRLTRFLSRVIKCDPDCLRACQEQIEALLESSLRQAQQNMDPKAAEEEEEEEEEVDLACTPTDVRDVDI

[23] = system: MOLM-13; assay: Antiproliferative activity against human MOLM-13 cells assessed as cell death measured after 72 hrs by resazurin dye based assay; assay type: functional; settings: MOLM-13, 72 h
[24] = molecular target: Receptor-type tyrosine-protein kinase FLT3 (Homo sapiens) (UniProt P36888); assay: Inhibition of FLT3 in human MV4-11 cells assessed as ERK1/2 phosphorylation at 20 to 100 nM incubated for 1 hrs by Western blot analysis; assay type: cell-based; settings: dose 20-100 nM
[25] = system: SEM cells; assay: Antiproliferative activity against human SEM cells assessed as cell death measured after 72 hrs by resazurin dye based assay; assay type: functional
[26] = molecular target: Cyclin-dependent kinase 1/cyclin B1 (Homo sapiens, UniProt P06493); assay: Inhibition of CDK1/cyclin B1 (unknown origin) in presence of [32P]gammaATP by image analyser; assay type: protein-complex assay
Cyclin-dependent kinase 1/cyclin B1, sequence (P06493 whole entry): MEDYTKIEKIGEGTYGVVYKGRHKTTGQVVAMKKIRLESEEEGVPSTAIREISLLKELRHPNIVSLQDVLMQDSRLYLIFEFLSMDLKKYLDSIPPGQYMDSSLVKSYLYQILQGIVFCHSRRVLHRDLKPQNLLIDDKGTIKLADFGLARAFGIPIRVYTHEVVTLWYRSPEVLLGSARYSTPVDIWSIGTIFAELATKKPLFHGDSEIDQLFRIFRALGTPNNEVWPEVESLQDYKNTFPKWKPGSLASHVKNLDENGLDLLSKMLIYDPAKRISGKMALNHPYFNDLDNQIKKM
Cyclin-dependent kinase 1/cyclin B1, sequence (P14635 whole entry, further chain): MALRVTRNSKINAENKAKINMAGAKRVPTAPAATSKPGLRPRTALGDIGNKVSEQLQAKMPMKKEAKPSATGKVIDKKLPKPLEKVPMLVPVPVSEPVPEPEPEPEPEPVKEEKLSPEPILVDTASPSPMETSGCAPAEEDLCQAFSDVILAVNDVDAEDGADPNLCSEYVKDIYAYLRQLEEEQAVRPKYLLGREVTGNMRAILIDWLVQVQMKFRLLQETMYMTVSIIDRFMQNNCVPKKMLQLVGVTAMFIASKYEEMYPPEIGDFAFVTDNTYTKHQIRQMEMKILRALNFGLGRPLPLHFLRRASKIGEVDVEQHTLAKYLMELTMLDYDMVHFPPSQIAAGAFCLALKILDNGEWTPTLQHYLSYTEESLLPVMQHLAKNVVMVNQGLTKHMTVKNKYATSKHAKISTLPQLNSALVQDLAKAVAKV

[27] = molecular target: CDK9/cyclin T1 (Homo sapiens, UniProt P50750); assay: Inhibition of CDK9/cyclin T1 (unknown origin) in presence of [32P]gammaATP by image analyser; assay type: protein-complex assay
CDK9/cyclin T1, sequence (O60563 whole entry): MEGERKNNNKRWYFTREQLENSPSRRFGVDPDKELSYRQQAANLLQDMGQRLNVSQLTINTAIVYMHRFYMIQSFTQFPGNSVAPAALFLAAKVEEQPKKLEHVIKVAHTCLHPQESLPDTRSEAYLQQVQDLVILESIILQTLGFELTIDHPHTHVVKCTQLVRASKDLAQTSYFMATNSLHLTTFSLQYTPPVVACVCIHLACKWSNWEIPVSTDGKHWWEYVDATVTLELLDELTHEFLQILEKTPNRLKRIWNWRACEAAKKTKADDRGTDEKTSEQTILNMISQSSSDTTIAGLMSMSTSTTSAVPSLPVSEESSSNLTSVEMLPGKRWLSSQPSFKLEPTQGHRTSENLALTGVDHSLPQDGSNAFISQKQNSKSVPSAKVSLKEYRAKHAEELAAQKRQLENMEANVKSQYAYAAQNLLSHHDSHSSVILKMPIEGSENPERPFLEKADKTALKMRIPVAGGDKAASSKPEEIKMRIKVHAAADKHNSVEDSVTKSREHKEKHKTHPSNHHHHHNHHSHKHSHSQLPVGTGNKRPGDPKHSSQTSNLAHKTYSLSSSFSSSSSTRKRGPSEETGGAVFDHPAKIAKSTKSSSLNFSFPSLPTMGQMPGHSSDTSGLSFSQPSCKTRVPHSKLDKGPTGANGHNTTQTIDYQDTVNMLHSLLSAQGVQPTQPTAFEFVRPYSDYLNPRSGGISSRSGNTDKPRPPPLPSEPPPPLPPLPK
CDK9/cyclin T1, sequence (P50750 whole entry): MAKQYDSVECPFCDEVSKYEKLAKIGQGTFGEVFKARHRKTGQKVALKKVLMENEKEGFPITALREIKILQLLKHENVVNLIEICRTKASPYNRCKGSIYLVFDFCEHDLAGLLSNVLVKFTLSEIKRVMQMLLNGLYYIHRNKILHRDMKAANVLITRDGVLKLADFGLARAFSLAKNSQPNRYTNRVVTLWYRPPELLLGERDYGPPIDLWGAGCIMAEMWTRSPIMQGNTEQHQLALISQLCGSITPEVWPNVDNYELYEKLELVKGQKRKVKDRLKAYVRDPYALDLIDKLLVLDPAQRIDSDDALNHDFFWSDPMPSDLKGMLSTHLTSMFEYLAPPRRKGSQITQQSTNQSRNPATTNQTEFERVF

[28] = molecular target: Cyclin-dependent kinase 2/cyclin E1 (Homo sapiens, UniProt P24941); assay: Inhibition of CDK2/cyclin E1 (unknown origin) in presence of [32P]gammaATP by image analyser; assay type: protein-complex assay

| SMILES | IC50 [1] [nM] | IC50 [2] [nM] | IC50 [3] [nM] | IC50 [4] [nM] | IC50 [5] [nM] | IC50 [6] [nM] | inhibition [7] | IC50 [8] [nM] | IC50 [9] [nM] | Activity [10] | IC50 [11] [nM] | IC50 [12] [nM] | Activity [13] | IC50 [14] [nM] | IC50 [15] [nM] | Activity [16] | Activity [17] | IC50 [18] [nM] | Activity [19] | inhibition [20] | further results |
| --- | --- | --- | --- | --- | --- | --- | --- | --- | --- | --- | --- | --- | --- | --- | --- | --- | --- | --- | --- | --- | --- |
| Fc1cc2[nH]ncc2c2c3c(c(-c4c[nH]nc4C(F)(F)F)nc12)CCCC3 | 42 | 7 | 39 | 3740 | 7230 | 12 | Active | 3460 | 28 | Active | 42 | 31 | Active | 17 | 3880 | Active | Active | 2240 | Active | Active | IC50 [21]: 39 nM; IC50 [22]: > 1000 nM; IC50 [23]: 6 nM; inhibition [24]: inactive; IC50 [25]: 180 nM; IC50 [26]: 52 nM; IC50 [27]: 538 nM; IC50 [28]: 33 nM |
| Cc1n[nH]c2cc(F)c3nc(-c4c[nH]nc4C(F)(F)F)c4c(c3c12)CCCC4 | 16 | 20 | 158 | 5730 | 9200 | 1 | Active | 2850 | 14 | Active | 48 | 7 | Active | 7 | 5980 | Active | Active | 2580 | Active | Active | IC50 [21]: 158 nM; IC50 [22]: > 1000 nM; IC50 [23]: 7 nM; inhibition [24]: inactive; IC50 [25]: 111 nM; IC50 [26]: 140 nM; IC50 [27]: > 1000 nM; IC50 [28]: 182 nM |
